Measured values as given in article PMC8698302, “An Antibacterial Peptide with High Resistance to Trypsin Obtained by Substituting D-Amino Acids for Trypsin Cleavage Sites” (Antibiotics, 2021).
Values after ≈ are worked out from the molar mass of the structure shown. Read-outs that look alike come from different tables or passages of the source.

Tests used:
Test in all cases: Antimicrobial susceptibility test of clinical isolated strains
Format in all cases: cell-based
Escherichia coli QY = details: for Antimicrobial susceptibility test result (category): according to CLSI 2015 guidelines
Protocol: (§1) Table S1. Antimicrobial susceptibility test of clinical isolated strains used in this study (MIC, μg/mL).
(§2) 1Antimicrobial susceptibility test results were determined according to CLSI 2015 guidelines, where "R" stands for drug resistance,
(§3) "I" stands for intermediate, "S" stands for susceptible. […]

Escherichia coli S1N1 = details: for Antimicrobial susceptibility test result (category): according to CLSI 2015 guidelines
Protocol: as §1, §2, §3

Escherichia coli SN5 = details: for Antimicrobial susceptibility test result (category): according to CLSI 2015 guidelines
Protocol: as §1, §2, §3

Escherichia coli w122 = details: for Antimicrobial susceptibility test result (category): according to CLSI 2015 guidelines
Protocol: as §1, §2, §3

Escherichia coli w123 = details: for Antimicrobial susceptibility test result (category): according to CLSI 2015 guidelines
Protocol: as §1, §2, §3

[1] = tested on: Methicillin-resistant Staphylococcus aureus HP; details: for MIC: Staphylococcus aureus, antibiotic susceptibility, CLSI 2015 guidelines; for Antimicrobial susceptibility test result (category): according to CLSI 2015 guidelines
Protocol: as §1, §2, §3

Shigella flexneri QY1 = details: for Antimicrobial susceptibility test result (category): according to CLSI 2015 guidelines
Protocol: as §1, §2, §3

Escherichia coli w124 = details: for Antimicrobial susceptibility test result (category): according to CLSI 2015 guidelines
Excerpt: as §1, §3

Escherichia coli w136 = details: for Antimicrobial susceptibility test result (category): according to CLSI 2015 guidelines
Excerpt: as §1, §3

[2] = Escherichia coli, antibiotic susceptibility, CLSI 2015 guidelines, read-out: MIC
[3] = Escherichia coli, S1N1, antibiotic susceptibility, CLSI 2015 guidelines, read-out: MIC
[4] = Escherichia coli, SN5, antibiotic susceptibility, CLSI 2015 guidelines, read-out: MIC
[5] = Escherichia coli, W122, antibiotic susceptibility, CLSI 2015 guidelines, read-out: MIC
[6] = Escherichia coli, W123, antibiotic susceptibility, CLSI 2015 guidelines, read-out: MIC
[7] = Escherichia coli, W124, antibiotic susceptibility, CLSI 2015 guidelines, read-out: MIC
[8] = Escherichia coli, W136, antibiotic susceptibility, CLSI 2015 guidelines, read-out: MIC
[9] = antibiotic susceptibility, CLSI 2015 guidelines

| Compound | MIC (Escherichia coli QY; [2]) [µg/mL] | Antimicrobial susceptibility test result (category) (Escherichia coli QY) | MIC (Escherichia coli S1N1; [3]) [µg/mL] | Antimicrobial susceptibility test result (category) (Escherichia coli S1N1) | MIC (Escherichia coli SN5; [4]) [µg/mL] | Antimicrobial susceptibility test result (category) (Escherichia coli SN5) | MIC (Escherichia coli w122; [5]) [µg/mL] | Antimicrobial susceptibility test result (category) (Escherichia coli w122) | MIC (Escherichia coli w123; [6]) [µg/mL] | Antimicrobial susceptibility test result (category) (Escherichia coli w123) | MIC [1] [µg/mL] | Antimicrobial susceptibility test result (category) [1] | MIC (Shigella flexneri QY1; Shigella flexneri, QY1) [µg/mL] | Antimicrobial susceptibility test result (category) (Shigella flexneri QY1) | MIC (Escherichia coli w124; [7]) [µg/mL] | Antimicrobial susceptibility test result (category) (Escherichia coli w124) | MIC (Escherichia coli w136; [8]) [µg/mL] | Antimicrobial susceptibility test result (category) (Escherichia coli w136) | further results |
| --- | --- | --- | --- | --- | --- | --- | --- | --- | --- | --- | --- | --- | --- | --- | --- | --- | --- | --- | --- |
| CC[C@H]1OC(=O)[C@H](C)[C@@H](O[C@H]2C[C@@](C)(OC)[C@@H](O)[C@H](C)O2)[C@H](C)[C@@H](O[C@@H]2O[C@H](C)C[C@H](N(C)C)[C@H]2O)[C@](C)(O)C[C@@H](C)CN(C)[C@H](C)[C@@H](O)[C@]1(C)O [Azithromycin] | 8 (≈ 10.7 µM) | S | 4 (≈ 5.34 µM) | S | 4 (≈ 5.34 µM) | S | 4 (≈ 5.34 µM) | S | 4 (≈ 5.34 µM) | S | 1 (≈ 1.34 µM) | S | 64 (≈ 85.4 µM) | R | 4 (≈ 5.34 µM) | S | 2 (≈ 2.67 µM) | S |  |
| CO/N=C(\C(=O)N[C@@H]1C(=O)N2C(C(=O)O)=C(CSc3nc(=O)c(=O)[nH]n3C)CS[C@H]12)c1csc(N)n1 [Ceftriaxone] | 64 (≈ 115 µM) | R | 16 (≈ 28.9 µM) | R | 16 (≈ 28.9 µM) | R | 32 (≈ 57.7 µM) | R | 32 (≈ 57.7 µM) | R |  |  | 4 (≈ 7.21 µM) | R | 4 (≈ 7.21 µM) | R | 0.06 (≈ 0.108 µM) | S |  |
| CS(=O)(=O)c1ccc([C@@H](O)[C@@H](CF)NC(=O)C(Cl)Cl)cc1 [Florfenicol] | 128 (≈ 357 µM) | R | 2 (≈ 5.58 µM) | S | 4 (≈ 11.2 µM) | S | 128 (≈ 357 µM) | R | 128 (≈ 357 µM) | R |  |  | 2 (≈ 5.58 µM) | S | 128 (≈ 357 µM) | R | 128 (≈ 357 µM) | R |  |
| CNC(C)C1CCC(N)C(OC2C(N)CC(N)C(OC3OCC(C)(O)C(NC)C3O)C2O)O1 (stereo not shown) [Gentamicin] | > 512 | R | < 0.03 | S | < 0.03 | S | 1 (≈ 2.09 µM) | S | 1 (≈ 2.09 µM) | S | 16 (≈ 33.5 µM) | R | 1 (≈ 2.09 µM) | S | 8 (≈ 16.8 µM) | I | 8 (≈ 16.8 µM) | I |  |
| CO[C@H]1/C=C/O[C@@]2(C)Oc3c(C)c(O)c4c(O)c(c(/C=N/N5CCN(C)CC5)c(O)c4c3C2=O)NC(=O)/C(C)=C\C=C\[C@H](C)[C@H](O)[C@@H](C)[C@@H](O)[C@@H](C)[C@H](OC(C)=O)[C@@H]1C [Rifampicin] | 4 (≈ 4.86 µM) | S | 2 (≈ 2.43 µM) | S | 1 (≈ 1.22 µM) | S | 4 (≈ 4.86 µM) | S | 4 (≈ 4.86 µM) | S | 8 (≈ 9.72 µM) | R | 2 (≈ 2.43 µM) | S | 4 (≈ 4.86 µM) | S | 64 (≈ 77.8 µM) | R |  |
| Cc1noc(NS(=O)(=O)c2ccc(N)cc2)c1C [Sulfafurazole] |  | R |  | R |  | R |  | R |  | R |  |  | > 512 | R |  | R |  | R | MIC (Escherichia coli QY; Escherichia coli): 512 µg/mL (≈ 1920 µM); MIC (Escherichia coli S1N1; Escherichia coli, S1N1): 512 µg/mL (≈ 1920 µM); MIC (Escherichia coli SN5; Escherichia coli, SN5): > 512 µg/mL; MIC (Escherichia coli w122; Escherichia coli, W122): 512 µg/mL (≈ 1920 µM); MIC (Escherichia coli w123; Escherichia coli, W123): 512 µg/mL (≈ 1920 µM); MIC (Escherichia coli w124; Escherichia coli, W124): 512 µg/mL (≈ 1920 µM); MIC (Escherichia coli w136; Escherichia coli, W136): 512 µg/mL (≈ 1920 µM) |
| CN(C)[C@@H]1C(O)=C(C(N)=O)C(=O)[C@@]2(O)C(O)=C3C(=O)c4c(O)cccc4[C@@](C)(O)[C@H]3C[C@@H]12 [Tetracycline] |  | R | 32 (≈ 72 µM) | R | 64 (≈ 144 µM) | R | 32 (≈ 72 µM) | R | 32 (≈ 72 µM) | R | 32 (≈ 72 µM) | R | 32 (≈ 72 µM) | R |  | R |  | R |  |
| COc1cccc(OC)c1C(=O)N[C@@H]1C(=O)N2[C@@H]1SC(C)(C)[C@@H]2C(=O)O [methicillin] |  |  | 128 (≈ 336 µM) | R | 64 (≈ 168 µM) | R | 64 (≈ 168 µM) | R | 128 (≈ 336 µM) | R | 128 (≈ 336 µM) | R | 32 (≈ 84.1 µM) | R |  |  |  |  |  |
| PolymixinB |  | S |  | S |  | S |  | S |  | S |  |  |  | S |  | S |  | R | MIC (Escherichia coli QY; [9]): 1 µg/mL; MIC (Escherichia coli S1N1; [9]): 0.5 µg/mL; MIC (Escherichia coli SN5; [9]): 0.5 µg/mL; MIC (Escherichia coli w122; [9]): 0.5 µg/mL; MIC (Escherichia coli w123; [9]): 0.5 µg/mL; MIC (Shigella flexneri QY1; [9]): 0.5 µg/mL; MIC (Escherichia coli w124; [9]): 0.5 µg/mL; MIC (Escherichia coli w136; [9]): 8 µg/mL |
